Measured values published in BigSolDB 2.1.

CC(C)(C)[C@H](O)[C@H](Cc1ccc(Cl)cc1)n1cncn1 (racemic)
solubility (mole fraction)
Conditions	in 1,4-dioxane	in acetone	in acetonitrile	in ethanol	in ethyl acetate	in isopropanol	in n-butanol	in n-propanol	in toluene
278.15 K	0.0156	0.0135	0.00239	0.00749	0.00783	0.00707	0.0134	0.0124	0.0416
280.65 K	0.0168	0.0145	0.00267	0.0081	0.00895	0.00766	0.0141	0.0131	0.0426
283.15 K	0.0183	0.0155	0.00295	0.00885	0.0104	0.00835	0.0151	0.0139	0.0437
285.65 K	0.0203	0.0167	0.00331	0.00979	0.0118	0.00912	0.0162	0.0146	0.045
288.15 K	0.0223	0.0181	0.00366	0.0107	0.0133	0.00985	0.0173	0.0155	0.0462
290.65 K	0.0248	0.0194	0.00405	0.0117	0.0153	0.0108	0.0184	0.0163	0.0473
293.15 K	0.0271	0.0209	0.00449	0.0128	0.0175	0.0117	0.0198	0.0172	0.0484
295.65 K	0.0296	0.0223	0.00495	0.0138	0.0201	0.0127	0.0211	0.0182	0.0496
298.15 K	0.0324	0.0239	0.00544	0.0149	0.0228	0.0138	0.0224	0.0192	0.0508
300.65 K	0.0351	0.0253	0.00596	0.016	0.0255	0.0149	0.0238	0.0203	0.0521
303.15 K	0.0381	0.0269	0.00653	0.0173	0.029	0.0161	0.0251	0.0215	0.0533
305.65 K	0.0412	0.0284	0.00709	0.0185	0.0324	0.0173	0.0266	0.0228	0.0546
308.15 K	0.044	0.0301	0.00776	0.02	0.0359	0.0185	0.0279	0.0241	0.0557
310.65 K	0.0475	0.0317	0.00846	0.0214	0.0395	0.0197	0.0295	0.0253	0.057
313.15 K	0.0512	0.0335	0.00916	0.0229	0.0444	0.021	0.0308	0.0265	0.0584
315.65 K	0.0551	0.0353	0.01	0.0246	0.0497	0.0225	0.0324	0.0278	0.0597
318.15 K	0.0593	0.0372	0.011	0.0265	0.0552	0.0242	0.0341	0.0291	0.061
